Assay results published in the supplement of paper PMC13207355.
Where a name gives a salt, the structure may show the parent alone.

Experiments:
Details in all cases: exposure time: 72 h
[1] = tested on: E13 (patient-derived glioblastoma stem cells of classical subtype); experiment: surviving fraction (nuclei count normalised to DMSO); higher = more cells surviving (less toxic)
[2] = tested on: E21 (patient-derived glioblastoma stem cells of mesenchymal subtype); experiment: as above
[3] = tested on: E28 (patient-derived glioblastoma stem cells of classical subtype); experiment: as above
[4] = tested on: E31 (patient-derived glioblastoma stem cells of proneural subtype); experiment: as above
[5] = tested on: E34 (patient-derived glioblastoma stem cells of proneural subtype); experiment: as above
[6] = tested on: E57 (patient-derived glioblastoma stem cells of mesenchymal subtype); experiment: as above
[7] = tested on: FT3469 (normal neural stem cell line); experiment: as above
[8] = tested on: E13; experiment: phenotypic distance (Euclidean, principal components) from DMSO controls (arbitrary units); higher = stronger morphological change
[9] = tested on: E21; experiment: as above
[10] = tested on: E28; experiment: as above
[11] = tested on: E31; experiment: as above
[12] = tested on: E34; experiment: as above
[13] = tested on: E57; experiment: as above
[14] = tested on: FT3469; experiment: as above
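For phenotypic distance (Euclidean, principal components) from DMSO controls in this document: cell Painting imaging in 384-well plates, CellProfiler features reduced to at least 20 principal components, Euclidean distance versus same-plate DMSO vehicle wells (0.1% v/v), median over six images per well.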
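For surviving fraction (nuclei count normalised to DMSO) in this document: nuclei counted by high-content imaging of Hoechst-stained cells in laminin-coated 384-well plates, relative to 0.1% DMSO vehicle wells, with staurosporine as cell-death control.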

S=c1[nH]cnc2nc[nH]c12 [Mercaptopurine]
Details	phenotypic distance	surviving fraction
[1], 4.1 nM	–	0.921
[1], 12.3 nM	–	0.917
[1], 37 nM	–	0.937
[1], 111.1 nM	–	1.04
[1], 333.3 nM	–	0.899
[1], 1000 nM	–	1.07
[1], 3000 nM	–	0.933
[2], 4.1 nM	–	1.09
[2], 12.3 nM	–	1.04
[2], 37 nM	–	0.958
[2], 111.1 nM	–	1.01
[2], 333.3 nM	–	0.977
[2], 1000 nM	–	0.922
[2], 3000 nM	–	1.05
[3], 4.1 nM	–	0.929
[3], 12.3 nM	–	1.02
[3], 37 nM	–	0.893
[3], 111.1 nM	–	1.13
[3], 333.3 nM	–	0.931
[3], 1000 nM	–	0.942
[3], 3000 nM	–	0.996
[4], 4.1 nM	–	1.1
[4], 12.3 nM	–	1.04
[4], 37 nM	–	0.994
[4], 111.1 nM	–	1.08
[4], 333.3 nM	–	1
[4], 1000 nM	–	1.16
[4], 3000 nM	–	0.862
[5], 4.1 nM	–	1.04
[5], 12.3 nM	–	1.18
[5], 37 nM	–	1.17
[5], 111.1 nM	–	1.09
[5], 333.3 nM	–	0.961
[5], 1000 nM	–	1.18
[5], 3000 nM	–	0.823
[6], 4.1 nM	–	1.14
[6], 12.3 nM	–	1.06
[6], 37 nM	–	1.02
[6], 111.1 nM	–	1.03
[6], 333.3 nM	–	1.06
[6], 1000 nM	–	1.11
[6], 3000 nM	–	1.1
[7], 4.1 nM	–	1.13
[7], 12.3 nM	–	1.18
[7], 37 nM	–	1.05
[7], 111.1 nM	–	1.24
[7], 333.3 nM	–	1.1
[7], 1000 nM	–	1.09
[7], 3000 nM	–	1.18
[8], 4.1 nM	0.545	–
[8], 12.3 nM	0.627	–
[8], 37 nM	0.483	–
[8], 111.1 nM	0.814	–
[8], 333.3 nM	0.609	–
[8], 1000 nM	0.518	–
[8], 3000 nM	0.658	–
[9], 4.1 nM	0.78	–
[9], 12.3 nM	1.43	–
[9], 37 nM	0.81	–
[9], 111.1 nM	0.892	–
[9], 333.3 nM	0.78	–
[9], 1000 nM	1.02	–
[9], 3000 nM	0.813	–
[10], 4.1 nM	0.534	–
[10], 12.3 nM	1.01	–
[10], 37 nM	0.638	–
[10], 111.1 nM	0.681	–
[10], 333.3 nM	0.395	–
[10], 1000 nM	0.531	–
[10], 3000 nM	0.838	–
[11], 4.1 nM	0.771	–
[11], 12.3 nM	0.551	–
[11], 37 nM	0.636	–
[11], 111.1 nM	0.699	–
[11], 333.3 nM	0.484	–
[11], 1000 nM	0.59	–
[11], 3000 nM	0.762	–
[12], 4.1 nM	0.504	–
[12], 12.3 nM	0.959	–
[12], 37 nM	0.783	–
[12], 111.1 nM	0.796	–
[12], 333.3 nM	0.438	–
[12], 1000 nM	0.992	–
[12], 3000 nM	0.809	–
[13], 4.1 nM	0.611	–
[13], 12.3 nM	0.822	–
[13], 37 nM	1.19	–
[13], 111.1 nM	0.97	–
[13], 333.3 nM	0.524	–
[13], 1000 nM	0.658	–
[13], 3000 nM	0.893	–
[14], 4.1 nM	0.501	–
[14], 12.3 nM	0.977	–
[14], 37 nM	0.81	–
[14], 111.1 nM	1.22	–
[14], 333.3 nM	0.759	–
[14], 1000 nM	0.781	–
[14], 3000 nM	0.82	–

Cc1ncc(CO)c(CO)c1O [Pyridoxine hydrochloride]
Details	phenotypic distance	surviving fraction
[1], 4.1 nM	–	0.907
[1], 12.3 nM	–	0.973
[1], 37 nM	–	0.968
[1], 111.1 nM	–	1.04
[1], 333.3 nM	–	1.02
[1], 1000 nM	–	0.905
[1], 3000 nM	–	1.08
[2], 4.1 nM	–	0.9
[2], 12.3 nM	–	1.04
[2], 37 nM	–	1.02
[2], 111.1 nM	–	1.03
[2], 333.3 nM	–	0.92
[2], 1000 nM	–	1.06
[2], 3000 nM	–	1.03
[3], 4.1 nM	–	0.967
[3], 12.3 nM	–	1.04
[3], 37 nM	–	0.991
[3], 111.1 nM	–	0.922
[3], 333.3 nM	–	0.975
[3], 1000 nM	–	0.968
[3], 3000 nM	–	1.09
[4], 4.1 nM	–	0.944
[4], 12.3 nM	–	1.04
[4], 37 nM	–	1.03
[4], 111.1 nM	–	1.1
[4], 333.3 nM	–	1.03
[4], 1000 nM	–	1.01
[4], 3000 nM	–	0.903
[5], 4.1 nM	–	0.949
[5], 12.3 nM	–	0.918
[5], 37 nM	–	1.19
[5], 111.1 nM	–	1.07
[5], 333.3 nM	–	0.943
[5], 1000 nM	–	0.916
[5], 3000 nM	–	1.06
[6], 4.1 nM	–	1.03
[6], 12.3 nM	–	0.99
[6], 37 nM	–	1.01
[6], 111.1 nM	–	0.965
[6], 333.3 nM	–	1.07
[6], 1000 nM	–	0.984
[6], 3000 nM	–	0.981
[7], 4.1 nM	–	0.987
[7], 12.3 nM	–	0.951
[7], 37 nM	–	0.972
[7], 111.1 nM	–	0.985
[7], 333.3 nM	–	1.05
[7], 1000 nM	–	1.09
[7], 3000 nM	–	0.987
[8], 4.1 nM	1.83	–
[8], 12.3 nM	0.627	–
[8], 37 nM	0.476	–
[8], 111.1 nM	0.757	–
[8], 333.3 nM	0.677	–
[8], 1000 nM	0.715	–
[8], 3000 nM	1.55	–
[9], 4.1 nM	0.627	–
[9], 12.3 nM	0.496	–
[9], 37 nM	0.428	–
[9], 111.1 nM	0.899	–
[9], 333.3 nM	0.724	–
[9], 1000 nM	0.617	–
[9], 3000 nM	0.536	–
[10], 4.1 nM	0.428	–
[10], 12.3 nM	0.769	–
[10], 37 nM	0.765	–
[10], 111.1 nM	0.622	–
[10], 333.3 nM	0.82	–
[10], 1000 nM	1.01	–
[10], 3000 nM	0.741	–
[11], 4.1 nM	1.57	–
[11], 12.3 nM	0.82	–
[11], 37 nM	0.958	–
[11], 111.1 nM	1.06	–
[11], 333.3 nM	0.654	–
[11], 1000 nM	0.523	–
[11], 3000 nM	0.738	–
[12], 4.1 nM	1.15	–
[12], 12.3 nM	0.917	–
[12], 37 nM	0.991	–
[12], 111.1 nM	1.16	–
[12], 333.3 nM	0.742	–
[12], 1000 nM	0.612	–
[12], 3000 nM	0.936	–
[13], 4.1 nM	1.25	–
[13], 12.3 nM	1.12	–
[13], 37 nM	0.554	–
[13], 111.1 nM	0.42	–
[13], 333.3 nM	0.699	–
[13], 1000 nM	0.559	–
[13], 3000 nM	0.776	–
[14], 4.1 nM	0.887	–
[14], 12.3 nM	0.632	–
[14], 37 nM	0.988	–
[14], 111.1 nM	0.539	–
[14], 333.3 nM	4.03	–
[14], 1000 nM	0.686	–
[14], 3000 nM	0.525	–

NC(=O)c1ccccc1 [Benzamide]
Details	phenotypic distance	surviving fraction
[1], 4.1 nM	–	0.896
[1], 12.3 nM	–	0.891
[1], 37 nM	–	0.961
[1], 111.1 nM	–	1.04
[1], 333.3 nM	–	1.03
[1], 1000 nM	–	0.945
[1], 3000 nM	–	1.04
[2], 4.1 nM	–	1.03
[2], 12.3 nM	–	0.945
[2], 37 nM	–	0.996
[2], 111.1 nM	–	1.1
[2], 333.3 nM	–	1.04
[2], 1000 nM	–	0.872
[2], 3000 nM	–	1
[3], 4.1 nM	–	0.82
[3], 12.3 nM	–	1.08
[3], 37 nM	–	0.909
[3], 111.1 nM	–	1.31
[3], 333.3 nM	–	1.03
[3], 1000 nM	–	1.09
[3], 3000 nM	–	1.04
[4], 4.1 nM	–	0.994
[4], 12.3 nM	–	0.978
[4], 37 nM	–	0.972
[4], 111.1 nM	–	1.02
[4], 333.3 nM	–	0.968
[4], 1000 nM	–	1.07
[4], 3000 nM	–	0.947
[5], 4.1 nM	–	1.03
[5], 12.3 nM	–	0.958
[5], 37 nM	–	0.993
[5], 111.1 nM	–	1.04
[5], 333.3 nM	–	0.904
[5], 1000 nM	–	1.29
[5], 3000 nM	–	1.03
[6], 4.1 nM	–	0.938
[6], 12.3 nM	–	1.06
[6], 37 nM	–	1.02
[6], 111.1 nM	–	0.94
[6], 333.3 nM	–	0.938
[6], 1000 nM	–	0.896
[6], 3000 nM	–	0.99
[7], 4.1 nM	–	0.912
[7], 12.3 nM	–	1.15
[7], 37 nM	–	0.999
[7], 111.1 nM	–	0.863
[7], 333.3 nM	–	0.935
[7], 1000 nM	–	0.921
[7], 3000 nM	–	1.1
[8], 4.1 nM	0.817	–
[8], 12.3 nM	0.661	–
[8], 37 nM	0.401	–
[8], 111.1 nM	0.597	–
[8], 333.3 nM	0.747	–
[8], 1000 nM	0.669	–
[8], 3000 nM	0.437	–
[9], 4.1 nM	0.487	–
[9], 12.3 nM	0.521	–
[9], 37 nM	0.591	–
[9], 111.1 nM	1.08	–
[9], 333.3 nM	0.913	–
[9], 1000 nM	0.784	–
[9], 3000 nM	0.381	–
[10], 4.1 nM	0.972	–
[10], 12.3 nM	1.17	–
[10], 37 nM	0.735	–
[10], 111.1 nM	1.32	–
[10], 333.3 nM	0.871	–
[10], 1000 nM	1.28	–
[10], 3000 nM	0.95	–
[11], 4.1 nM	0.849	–
[11], 12.3 nM	1.02	–
[11], 37 nM	1.47	–
[11], 111.1 nM	1.03	–
[11], 333.3 nM	0.83	–
[11], 1000 nM	0.791	–
[11], 3000 nM	0.951	–
[12], 4.1 nM	1.19	–
[12], 12.3 nM	0.687	–
[12], 37 nM	0.776	–
[12], 111.1 nM	1.03	–
[12], 333.3 nM	0.862	–
[12], 1000 nM	1.13	–
[12], 3000 nM	0.579	–
[13], 4.1 nM	0.41	–
[13], 12.3 nM	0.828	–
[13], 37 nM	0.568	–
[13], 111.1 nM	0.557	–
[13], 333.3 nM	0.555	–
[13], 1000 nM	0.56	–
[13], 3000 nM	0.478	–
[14], 4.1 nM	0.505	–
[14], 12.3 nM	1.05	–
[14], 37 nM	0.628	–
[14], 111.1 nM	1.13	–
[14], 333.3 nM	0.522	–
[14], 1000 nM	1.07	–
[14], 3000 nM	0.83	–
